Test results: US20050032165A1, “Potassium channels, nucleotide sequences encoding them, and methods of using same” (BASF AKTIENGESELLSCHAFT, priority 1994, published 2005)

Assays:
CY162 cells = experiment: Yeast agar plate bioassay, control pYES2-containing CY162 strain; assay type: cell-based, Saccharomyces cerevisiae; details: CY162 bearing pYES2; low potassium agar; compound on filter disk
Method: (§1) FIG. 8. Inhibition of growth of yeast cells containing heterologous potassium channels. CY162 cells (10^5) bearing the indicated plasmids are plated in arginine phosphate agar medium containing 0.2 mM potassium chloride. Sterile filter disks were placed on the surface of the agar and saturated with 20 μl of a 1 M solution of potassium channel blocking compound. Clockwise from upper left-hand comer is BaCl2, CsCl, TEA, and RbCl. KCl is applied to the center disk.
Yeast strains dependent on heterologous potassium channels for growth should be sensitive to non-specific potassium channel blocking compounds. To test the potassium channel blocking properties of several compounds, a convenient agar plate bioassay is employed. Strains containing pKAT1, pRATRAK, pDmORF1, and pYES2 are plated in arginine-phosphate-dextrose agar medium lacking ura and containing various amounts of potassium chloride. Arginine-phosphate-dextrose medium is used to avoid interference from potassium and ammonium ions present in standard synthetic yeast culture medium. Sterile filter disks were placed on the surface of the agar and saturated with potassium channel blocking ions CsCl, BaCl2, and TEA. The growth of heterologous potassium channel containing strains is inhibited by potassium channel blocking ions, in a channel dependent manner. DmORF1-dependent growth is blocked by BaCl2 but not by CsCl or TEA. […]

KAT1 = target: T1, KAT1 (Arabidopsis thaliana, UniProt Q39128); experiment: Yeast agar plate bioassay, KAT-dependent growth of CY162; assay type: cell-based, plant; details: CY162 yeast bearing pKAT1; filter disk with 20 μl of 1 M solution; arginine phosphate agar, 0.2 mM KCl
T1 construct: expressed in transfected cells; host or cells: Saccharomyces cerevisiae CY162 carrying pKAT1
T1 sequence (Q39128 whole entry): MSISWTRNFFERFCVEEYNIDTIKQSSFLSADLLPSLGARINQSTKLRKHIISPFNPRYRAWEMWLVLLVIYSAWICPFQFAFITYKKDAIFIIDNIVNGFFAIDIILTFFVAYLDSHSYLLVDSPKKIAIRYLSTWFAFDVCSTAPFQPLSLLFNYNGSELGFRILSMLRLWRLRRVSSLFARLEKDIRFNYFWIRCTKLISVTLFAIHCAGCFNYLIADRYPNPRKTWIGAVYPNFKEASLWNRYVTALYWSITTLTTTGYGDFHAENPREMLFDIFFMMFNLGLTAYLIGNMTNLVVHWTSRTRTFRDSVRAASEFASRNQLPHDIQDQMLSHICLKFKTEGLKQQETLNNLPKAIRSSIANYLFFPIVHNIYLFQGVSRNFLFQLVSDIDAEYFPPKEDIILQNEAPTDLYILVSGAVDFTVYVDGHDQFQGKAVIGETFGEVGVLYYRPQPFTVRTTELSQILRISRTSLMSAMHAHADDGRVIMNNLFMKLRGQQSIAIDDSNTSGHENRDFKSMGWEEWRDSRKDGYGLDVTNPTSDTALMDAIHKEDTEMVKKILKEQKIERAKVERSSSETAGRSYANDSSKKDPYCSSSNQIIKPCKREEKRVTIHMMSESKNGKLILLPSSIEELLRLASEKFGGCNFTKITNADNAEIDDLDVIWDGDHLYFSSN
Method: as §1
(§2) Yeast strains dependent on heterologous potassium channels for growth should be sensitive to non-specific potassium channel blocking compounds. To test the potassium channel blocking properties of several compounds, a convenient agar plate bioassay is employed. Strains containing pKAT1, pRATRAK, pDmORF1, and pYES2 are plated in arginine-phosphate-dextrose agar medium lacking ura and containing various amounts of potassium chloride. Arginine-phosphate-dextrose medium is used to avoid interference from potassium and ammonium ions present in standard synthetic yeast culture medium. Sterile filter disks were placed on the surface of the agar and saturated with potassium channel blocking ions CsCl, BaCl2, and TEA. The growth of heterologous potassium channel containing strains is inhibited by potassium channel blocking ions, in a channel dependent manner. DmORF1-dependent growth is blocked by BaCl2 but not by CsCl or TEA. KAT-dependent growth is blocked by BaCl2, CsCl and TEA. RATRAK-dependent growth is blocked by BaCl2, CsCl and TEA to a much greater extent than pKAT1, reflecting in part a slower growth rate of pRATRAK-containing cells.

DmORF1 [1] = target: T2, DmORF1 (Drosophila melanogaster, UniProt Q94526); experiment: Yeast agar plate bioassay, DmORF1-dependent growth of CY162; assay type: cell-based; parameters: A single long open reading frame sufficient to encode a protein of 618 amino acids (predicted MW 68 kDa) is encoded in pDmORF1; expressed in transfected cells; host or cells: Saccharomyces cerevisiae CY162 (trk1 trk2) carrying pDmORF1 (pYES2 library plasmid); details: CY162 yeast bearing pDmORF1; filter disk with 20 μl of 1 M solution; arginine phosphate agar, 0.2 mM KCl
T2 sequence (Q94526 other isoform, or with tags, fused parts or gaps with the stated changes): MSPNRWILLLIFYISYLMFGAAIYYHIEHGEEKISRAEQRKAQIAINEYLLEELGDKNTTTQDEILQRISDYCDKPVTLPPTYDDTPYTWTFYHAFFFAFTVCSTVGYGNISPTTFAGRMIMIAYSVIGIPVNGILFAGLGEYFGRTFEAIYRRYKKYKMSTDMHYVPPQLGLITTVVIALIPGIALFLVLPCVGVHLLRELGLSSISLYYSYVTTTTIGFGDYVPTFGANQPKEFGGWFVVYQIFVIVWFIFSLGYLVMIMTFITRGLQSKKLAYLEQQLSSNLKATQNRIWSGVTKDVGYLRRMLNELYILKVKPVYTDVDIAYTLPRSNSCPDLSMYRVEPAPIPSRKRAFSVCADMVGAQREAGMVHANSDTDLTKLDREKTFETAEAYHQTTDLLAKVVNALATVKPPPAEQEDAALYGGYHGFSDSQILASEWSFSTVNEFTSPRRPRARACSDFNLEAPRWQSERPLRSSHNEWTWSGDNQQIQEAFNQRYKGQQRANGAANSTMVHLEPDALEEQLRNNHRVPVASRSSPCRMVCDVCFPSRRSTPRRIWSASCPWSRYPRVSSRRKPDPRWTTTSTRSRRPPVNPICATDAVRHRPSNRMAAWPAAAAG
Method: as §1, §2

TPKC1 [2] = target: T3, TPKC1 (Homo sapiens, UniProt O95069, D309R/L311V/L365I/T411A/W310L); experiment: Growth of TPKC1-containing CY162 cells on low potassium media; assay type: cell-based; parameters: The TPKC1 ORF was amplified by PCR with 5′ primer; expressed in transfected cells; details: low (2-3 mM KCl) potassium media
T3 sequence (O95069 1-426 D309R/W310L/L311V/L365I/T411A): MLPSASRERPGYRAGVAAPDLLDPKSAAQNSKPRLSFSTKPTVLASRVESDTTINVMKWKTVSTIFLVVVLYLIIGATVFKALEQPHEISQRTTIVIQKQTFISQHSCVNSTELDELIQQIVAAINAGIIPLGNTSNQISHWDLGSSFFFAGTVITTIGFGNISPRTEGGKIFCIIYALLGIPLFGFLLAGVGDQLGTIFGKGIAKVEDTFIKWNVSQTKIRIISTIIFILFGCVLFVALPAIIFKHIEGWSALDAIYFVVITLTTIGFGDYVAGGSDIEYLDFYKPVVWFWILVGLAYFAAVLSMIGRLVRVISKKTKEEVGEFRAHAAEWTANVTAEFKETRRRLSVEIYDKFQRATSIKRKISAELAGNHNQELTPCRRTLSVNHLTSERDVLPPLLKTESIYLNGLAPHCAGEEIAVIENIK
Excerpt: The TPKC1 ORF was amplified using oligos that added restriction endonuclease cleavage sites appropriate for insertion into the yeast expression vectors pLP100 and pYES2 (Invitrogen). The corresponding TPKC1 expression plasmids, pLP155 and pLP156, were constructed using standard molecular biological methodology and used to transform S. cerevisiae CY162 cells using the lithium acetate method. The resulting yeast strains were examined for their ability to grow on standard synthetic agar media containing a low concentration of KCl. Expression of TPKC1 in CY162 cells supports their growth on low (2-3 mM KCl) potassium media. […] The growth of TPKC1-containing CY162 cells was inhibited by the known potassium channel blockers Ba^2+, Ca^2+, Cs^+, and quinine, but not by TEA. The oligos used for the cloning of 5′ and 3′ RACE fragments were used in this analysis as well.
LY890 (MAT trk1:: LYS2 trk2::TRP1 ura3-52 lys2-801, ade2-101, trp1-Δ63, his3-Δ200, leu2-Δ1) was constructed by deletion of the TRK1 and TRK2 genes from the parent yeast strain YPH500 (Stratagene). The full length TPKC1 ORF fragment was generated by PCR; 5′ primer (5′-AAAAGATCTAAAATGCTTCCCAGCGCC-3′), 3′ primer (AAAGTCGACCTATTTGATGTTCTCAAT-3′) and inserted into the yeast expression vector pLP100 [18] to yield pLP155. pLP155 was used to transform S. cerevisiae LY890 cells using standard methods. CY162 was constructed as described in J. A. Anderson et al., Proc. Natl. Acad. Sci. USA 89, 3736-3740 (1992). Yeast cells (10^5) containing the indicated plasmids were plated in RPD (arginine phosphate glucose) low potassium (2 mM) agar media and compounds applied to the surface of the agar.

RATRAK = target: T4, RATRAK (Rattus norvegicus, UniProt P63142); experiment: Yeast agar plate bioassay, RATRAK-dependent growth of CY162; assay type: cell-based; details: CY162 yeast bearing pRATRAK; filter disk with 20 μl of 1 M solution; blocked to a much greater extent than pKAT1
T4 construct: expressed in transfected cells; host or cells: Saccharomyces cerevisiae CY162 carrying pRATRAK
T4 sequence (P63142 whole entry): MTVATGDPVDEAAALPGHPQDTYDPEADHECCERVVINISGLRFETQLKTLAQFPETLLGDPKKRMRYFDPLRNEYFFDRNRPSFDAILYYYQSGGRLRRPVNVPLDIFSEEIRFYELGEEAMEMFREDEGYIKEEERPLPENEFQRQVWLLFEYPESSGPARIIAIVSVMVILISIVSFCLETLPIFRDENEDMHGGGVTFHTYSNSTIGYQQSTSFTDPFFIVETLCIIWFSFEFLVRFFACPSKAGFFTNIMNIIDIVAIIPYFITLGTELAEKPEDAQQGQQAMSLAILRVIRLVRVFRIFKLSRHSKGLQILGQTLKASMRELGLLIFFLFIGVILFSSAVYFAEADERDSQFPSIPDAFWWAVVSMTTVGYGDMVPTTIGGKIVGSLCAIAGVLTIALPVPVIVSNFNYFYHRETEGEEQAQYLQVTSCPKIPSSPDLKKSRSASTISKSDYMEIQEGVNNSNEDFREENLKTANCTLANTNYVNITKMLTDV
Method: as §1, §2

TPKC1 [3] = target: T3, TPKC1; experiment: TPCK1-induced currents in X. laevis oocytes, two-electrode voltage clamp; assay type: cell-based; parameters: The TPKC1 ORF was amplified by PCR with 5′ primer; expressed in transfected cells; host or cells: Xenopus laevis oocytes injected with cRNA transcribed from pLP163; details: for block of TPKC1 current: relative to Ba2+ (50% at 1 mM), data not shown
Excerpt: The expression vector pLP160 was generated by inserting a poly (A)n tract (n=30) followed by a BglII site between the Not1 and XbaI sites of pBluescript SK (+/−) (Stratagene). The final vector contains a deletion from the poly(A) tract through the BamH1 site. The TPKC1 ORF was amplified by PCR with 5′ primer (5′-AAAAAGCTTGCCACCATGCTTCCCAGCGCC-3′) and 3′ primer (5′-CTA TTT GAT GTT CTC-3′), digested with the HindIII and inserted into the vector pLP160 digested with HindIII and SmaI to give pLP163. This construct was linearized with BglII for in vitro cRNA transcription with T7 RNA polymerase (Ambion). The cRNA was quantified by gel electrophoresis using RNA standards (Gibco BRL). One ng of TPKC1 cRNA (23 nl of 40 ng/μl solution) was microinjected into defolliculated oocytes from Xenopus laevis. Oocytes were incubated at 17° C. with gentle shaking in ND96 medium. Whole cell electrophysiological recordings were taken 1-3 days post-injection at room temperature in a constantly-perfusing bath using a two-electrode voltage clamp protocol of 300 ms pulses from −150 to +60 mV from a holding potential of −90 mV. The interval between pulses was one second. Electrodes (3 MΩ current injection, 30 MΩ voltage recording) contained 4 M potassium acetate.

DmORF1 [4] = target: T2, DmORF1; experiment: DmORF1-induced currents in X. laevis oocytes, two-electrode voltage clamp; assay type: cell-based; parameters: A single long open reading frame sufficient to encode a protein of 618 amino acids (predicted MW 68 kDa) is encoded in pDmORF1; expressed in transfected cells; details: two-electrode whole-cell voltage clamp
Method: To test this hypothesis, the electrophysiological properties of the putative potassium channel encoded by DmORF1 was examined by expression in X. laevis oocytes. Currents were measured by two-electrode whole-cell voltage clamp. DNA sequences encoding the open reading frame of DmORF1 were amplified by polymerase chain reaction (PCR) using the following oligonucleotides:
The full length PCR product was cloned into corresponding sites in pSP64 poly A (Promega), forming pMP147. Template DNA was linearized with EcoRI and RNA transcribed using the Message Machine (Ambion) in vitro transcription kit according to manufacturers instructions. A sample of the RNA was resolved in a MOPS-acetate-formaldehyde agarose gel and RNA content was estimated by ethidium bromide staining. The remainder was stored on dry ice. X. laevis oocytes were isolated and injected with 50 nl of sterile TE containing 5-20 ng transcript according to published procedures. After three days, whole oocyte currents were recorded using a two-electrode voltage clamp. Electrodes contained 3M KCl and had resistances of 0.3-1.0 MW. Recordings were performed faith constant perfusion at room temperature in the presence of either low (10 mM) or high (90 mM) potassium chloride.

DmORF1 [5] = target: T2, DmORF1; experiment: 86Rb uptake into CY162 cells containing DmORF1; assay type: cell-based; parameters: A single long open reading frame sufficient to encode a protein of 618 amino acids (predicted MW 68 kDa) is encoded in pDmORF1; expressed in transfected cells; host or cells: Saccharomyces cerevisiae CY162 (trk1 trk2) carrying pDmORF1 (pYES2 library plasmid); details: CY162-DmORF1 yeast cells, Ca-MES buffer, room temperature
Method: Expression of DmORF permits CY162 cells to grow on medium containing a low concentration of potassium, implying that DmORF1 supplies high affinity potassium uptake capacity. To characterize the potassium uptake properties of CY162 cells containing DmORF1, ^86Rb uptake studies were performed.
Yeast strains containing heterologous potassium-expression plasmids CY162-DmORF1, CY162-pKAT and the control strain CY162-pYES2 (Clontech) were cultured overnight in SC Gal-ura containing 0.1 M KCl. The cells were harvested, washed with sterile doubled distilled water and starved for K^+ for 6 hours in Ca-MES buffer. Cells were washed again and distributed to culture tubes (10^8 cells/tube) containing ^86RbCl in Ca-MES buffer.

Compound: [Cl-].[K+] [KCl]
- growth of control pYES-containing strain around applied compound (CY162 cells): grows only around applied

Compound: CC[N+](CC)(CC)CC [TEA]
- block of KAT-dependent growth (KAT1): blocked
- block of DmORF1-dependent growth (DmORF1 [1]): not
- inhibition of growth of TPKC1-containing CY162 cells (TPKC1 [2]): not
- block of RATRAK-dependent growth (RATRAK): blocked
- block of TPKC1 current (TPKC1 [3]): failed to block

Compound: [Ca+2] [Ca^2+]
- inhibition of growth of TPKC1-containing CY162 cells (TPKC1 [2]): inhibited
- block of TPKC1 current (TPKC1 [3]): block to a lesser degree

Compound: [Ba+2].[Cl-].[Cl-] [BaCl2]
- attenuation of DmORF1 potassium currents (DmORF1 [4]): greatly attenuated
- block of KAT-dependent growth (KAT1): blocked
- block of DmORF1-dependent growth (DmORF1 [1]): blocked
- inhibition of growth of TPKC1-containing CY162 cells (TPKC1 [2]): inhibited
- block of RATRAK-dependent growth (RATRAK): blocked
- inhibition of TPKC1 current (TPKC1 [3]; applied at 1 mM, FIG. 11D): 50%
- inhibition of 86Rb uptake (DmORF1 [5]): inhibited

Compound: Nc1ccncc1 [4-AP]
- block of TPKC1 current (TPKC1 [3]): block to a lesser degree

Compound: [Cl-].[Rb+] [RbCl]
- growth of control pYES-containing strain around applied compound (CY162 cells): grows only around applied

Compound: C=C[C@H]1C[N@@]2CC[C@H]1C[C@H]2[C@H](O)c1ccnc2ccc(OC)cc12 [quinine]
- inhibition of growth of TPKC1-containing CY162 cells (TPKC1 [2]): inhibited
- block of TPKC1 current (TPKC1 [3]): block to a lesser degree

Compound: [Cl-].[Cs+] [CsCl]
- block of KAT-dependent growth (KAT1): blocked
- block of DmORF1-dependent growth (DmORF1 [1]): not
- inhibition of growth of TPKC1-containing CY162 cells (TPKC1 [2]): inhibited
- block of RATRAK-dependent growth (RATRAK): blocked
- block of TPKC1 current (TPKC1 [3]): failed to block
